Test results reported in ChEMBL document CHEMBL4190322, “Structure-based development of novel triazoles and related thiazolotriazoles as anticancer agents and Cdc25A/B phosphatase inhibitors. Synthesis, in vitro biological evaluation, molecular docking and in silico ADME-T studies” (Eur J Med Chem, 2017).
The source made the active and inactive calls. No cut-off for these calls is given here.

Assays:
HL-60 = experiment: Growth inhibition of human HL60 cells at 10 uM after 48 hrs by SRB assay relative to control; assay type: functional
NCI/ADR-RES = experiment: Growth inhibition of human NCI/ADR-RES cells at 10 uM after 48 hrs by SRB assay relative to control; assay type: functional; conditions: read-out: GI
HT-29 = experiment: Growth inhibition of human HT-29 cells at 10 uM after 48 hrs by SRB assay relative to control; assay type: functional; conditions: HT-29, 48 h, read-out: GI
[1] = Cytotoxicity against human MCF10A cells after 24 hrs by MTT assay; assay type: cell-based, MCF-10A; conditions: read-out: LC50
NCI-H226 = experiment: Growth inhibition of human NCI-H226 cells at 10 uM after 48 hrs by SRB assay relative to control; assay type: functional; conditions: for inhibition of growth at 10 µM: NCI-H226, 48 h, read-out: GI
[2] = target: T1, M-phase inducer phosphatase 2 (Homo sapiens, UniProt P30305); experiment: Inhibition of human CDC25B using OMFP as substrate after 15 mins by fluorescence assay
T1 sequence (P30305 whole entry): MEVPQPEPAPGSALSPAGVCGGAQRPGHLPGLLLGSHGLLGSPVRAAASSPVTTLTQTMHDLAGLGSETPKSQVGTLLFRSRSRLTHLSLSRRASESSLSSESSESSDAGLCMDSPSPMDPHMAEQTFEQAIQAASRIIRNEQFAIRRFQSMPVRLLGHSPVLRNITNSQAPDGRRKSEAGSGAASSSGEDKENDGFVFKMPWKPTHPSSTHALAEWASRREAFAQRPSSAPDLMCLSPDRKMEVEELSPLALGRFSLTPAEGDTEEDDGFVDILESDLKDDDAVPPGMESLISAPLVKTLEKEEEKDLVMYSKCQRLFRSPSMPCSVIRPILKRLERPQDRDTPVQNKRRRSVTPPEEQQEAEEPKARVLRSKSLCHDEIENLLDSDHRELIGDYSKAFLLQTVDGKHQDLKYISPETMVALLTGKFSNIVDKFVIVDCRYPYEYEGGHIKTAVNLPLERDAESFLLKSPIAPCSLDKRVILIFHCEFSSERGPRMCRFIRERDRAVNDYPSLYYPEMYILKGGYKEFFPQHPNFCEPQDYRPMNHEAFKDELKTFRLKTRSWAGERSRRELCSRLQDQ

KM12 = experiment: Growth inhibition of human KM12 cells at 10 uM after 48 hrs by SRB assay relative to control; assay type: functional; conditions: KM12, 48 h, read-out: GI
SK-MEL-2 = experiment: Growth inhibition of human SK-MEL-2 cells at 10 uM after 48 hrs by SRB assay relative to control; assay type: functional; conditions: SK-MEL-2, 48 h, read-out: GI
UACC-62 = experiment: Growth inhibition of human UACC62 cells at 10 uM after 48 hrs by SRB assay relative to control; assay type: functional; conditions: UACC-62, 48 h, read-out: GI
CCRF-CEM = experiment: Growth inhibition of human CCRF-CEM cells at 10 uM after 48 hrs by SRB assay relative to control; assay type: functional; conditions: read-out: GI
Hs-578T = experiment: Growth inhibition of human Hs 578T cells at 10 uM after 48 hrs by SRB assay relative to control; assay type: functional; conditions: for inhibition of growth at 10 µM: read-out: GI

SMILES | growth inhibition (GI) (HL-60) | inhibition of growth at 10 µM (NCI/ADR-RES) [%] | inhibition of growth at 10 µM (HT-29) [%] | CC50 at 24 h [1] [µM] | growth inhibition (GI) (NCI-H226) | IC50 [2] [µM] | inhibition of growth at 10 µM (KM12) [%] | inhibition of growth at 10 µM (SK-MEL-2) [%] | inhibition of growth at 10 µM (UACC-62) [%] | inhibition of growth at 10 µM (CCRF-CEM) [%] | growth inhibition (GI) (Hs-578T) | inhibition of growth at 10 µM (NCI-H226) [%] | inhibition of growth at 10 µM (Hs-578T) [%] | inhibition of growth at 10 µM (HL-60; HL-60, 48 h, read-out: GI) [%]
COc1ccc(Cc2nnc(SCC(=O)Nc3ccc(Cl)cc3)n2-c2ccccc2)cc1 | inactive | 11.4 | 2.73 | > 100 | inactive | 22.5 | 14.5 | 3.18 | 18.8 | 21.4 | inactive |  |  | 
COc1ccc(Cc2nnc(SCC(=O)c3ccc(Cl)cc3)n2-c2ccccc2)cc1 | inactive | 10.3 | 2.08 | > 100 |  | 20.1 | 5.87 | 11.5 | 13.7 | 7.71 |  | 4 | 3.43 | 
COc1ccc(Cc2nnc(SCC(=O)c3ccc(Cl)cc3)n2-c2ccc(C)cc2)cc1 |  | 12 | 4.07 | > 100 |  | 17.3 | 7.12 | 10 | 5.42 | 23 | inactive | 3 |  | 26.4
COc1ccc(Cc2nnc(SCC(=O)Nc3ccc(Cl)cc3)n2Cc2ccccc2)cc1 | inactive | 14.3 | 10 | > 100 |  | 8.4 | 16.7 | 17.2 | 38 | 22.4 |  | 4.45 | 2.82 | 
COc1ccc(Cc2nnc(SCC(=O)c3ccc(Cl)cc3)n2Cc2ccccc2)cc1 | inactive | 21.5 | 3 | > 100 |  | 6.7 | 10 | 13 | 14.8 | 20 |  | 10 | 20 | 
